Experimental data reported in ChEMBL document CHEMBL5550152, “Design, synthesis and evaluation of novel prostate-specific membrane antigen-targeted aryl [18F]fluorosulfate PET tracers” (Bioorg Med Chem, 2024).

Tests used:
[1] = Stability of the compound in PBS buffer measured after 4 hrs by radio-HPLC analysis; type: physicochemical
[2] = Drug distribution in nude mouse kidney xenografted with human 22Rv1 cells at 8.1 MBq,iv measured after 2 hrs; type: ADME, tissue-based, CWR22R; conditions: in vivo
[3] = Drug distribution in nude mouse lung xenografted with human 22Rv1 cells at 8.1 MBq,iv measured after 2 hrs; type: ADME, tissue-based, CWR22R; conditions: in vivo
[4] = Stability in mouse plasma measured after 4 hrs by radio-HPLC analysis; type: ADME, cell-free
[5] = Drug distribution in nude mouse large intestine xenografted with human 22Rv1 cells at 8.1 MBq,iv measured after 2 hrs in presence of 2-PMPA; type: ADME, tissue-based, CWR22R; conditions: in vivo
[6] = Drug distribution in nude mouse stomach xenografted with human 22Rv1 cells at 8.1 MBq,iv measured after 2 hrs in presence of 2-PMPA; type: ADME, tissue-based, CWR22R; conditions: in vivo
[7] = Drug distribution in nude mouse lung xenografted with human 22Rv1 cells at 8.1 MBq,iv measured after 1 hr; type: ADME, tissue-based, CWR22R; conditions: in vivo
[8] = Drug uptake in human 22Rv1 cells at 3.7 10^-2MBq measured after 1 hr relative to control; type: ADME, cell-based; conditions: cwr22r
[9] = Drug distribution in nude mouse heart xenografted with human 22Rv1 cells at 8.1 MBq,iv measured after 2 hrs; type: ADME, tissue-based, CWR22R; conditions: in vivo
[10] = Drug distribution in nude mouse spleen xenografted with human 22Rv1 cells at 8.1 MBq,iv measured after 4 hrs; type: ADME, tissue-based, CWR22R; conditions: in vivo
[11] = Drug distribution in nude mouse heart xenografted with human 22Rv1 cells at 8.1 MBq,iv measured after 2 hrs in presence of 2-PMPA; type: ADME, tissue-based, CWR22R; conditions: in vivo
[12] = Drug uptake in human 22Rv1 cells at 3.7 10^-2MBq pretreated with 2-PMPA for 30 mins followed by compound addition and measured after 1 hr relative to control; type: ADME, cell-based; conditions: cwr22r
[13] = Drug distribution in nude mouse stomach xenografted with human 22Rv1 cells at 8.1 MBq,iv measured after 1 hr; type: ADME, tissue-based, CWR22R; conditions: in vivo
[14] = Drug distribution in nude mouse bone xenografted with human 22Rv1 cells at 8.1 MBq,iv measured after 2 hrs; type: ADME, tissue-based, Bone element, CWR22R; conditions: in vivo
[15] = Drug distribution in nude mouse tumor xenografted with human 22Rv1 cells at 8.1 MBq,iv measured after 2 hrs; type: ADME, tissue-based, Neoplasm, CWR22R; conditions: in vivo
[16] = Drug distribution in nude mouse large intestine xenografted with human 22Rv1 cells at 8.1 MBq,iv measured after 1 hr; type: ADME, tissue-based, CWR22R; conditions: in vivo
[17] = Drug distribution in nude mouse heart xenografted with human 22Rv1 cells at 8.1 MBq,iv measured after 4 hrs; type: ADME, tissue-based, CWR22R; conditions: in vivo
[18] = Drug distribution in nude mouse liver xenografted with human 22Rv1 cells at 8.1 MBq,iv measured after 2 hrs; type: ADME, tissue-based, CWR22R; conditions: in vivo
[19] = Drug distribution in nude mouse bone xenografted with human 22Rv1 cells at 8.1 MBq,iv measured after 2 hrs in presence of 2-PMPA; type: ADME, tissue-based, Bone element, CWR22R; conditions: in vivo
[20] = Drug uptake in human 22Rv1 cells at 3.7 10^-2MBq measured after 4 hrs relative to control; type: ADME, cell-based; conditions: cwr22r
[21] = Drug distribution in nude mouse blood xenografted with human 22Rv1 cells at 8.1 MBq,iv measured after 2 hrs; type: ADME, tissue-based, CWR22R; conditions: in vivo
[22] = Drug distribution in nude mouse lung xenografted with human 22Rv1 cells at 8.1 MBq,iv measured after 4 hrs; type: ADME, tissue-based, CWR22R; conditions: in vivo
[23] = Drug distribution in nude mouse spleen xenografted with human 22Rv1 cells at 8.1 MBq,iv measured after 1 hr; type: ADME, tissue-based, CWR22R; conditions: in vivo
[24] = Drug distribution in nude mouse small intestine xenografted with human 22Rv1 cells at 8.1 MBq,iv measured after 2 hrs; type: ADME, tissue-based, CWR22R; conditions: in vivo
[25] = Drug distribution in nude mouse liver xenografted with human 22Rv1 cells at 8.1 MBq,iv measured after 4 hrs; type: ADME, tissue-based, CWR22R; conditions: in vivo
[26] = Drug distribution in nude mouse stomach xenografted with human 22Rv1 cells at 8.1 MBq,iv measured after 4 hrs; type: ADME, tissue-based, CWR22R; conditions: in vivo
[27] = Drug distribution in nude mouse spleen xenografted with human 22Rv1 cells at 8.1 MBq,iv measured after 2 hrs in presence of 2-PMPA; type: ADME, tissue-based, CWR22R; conditions: in vivo
[28] = Drug distribution in nude mouse brain xenografted with human 22Rv1 cells at 8.1 MBq,iv measured after 2 hrs; type: ADME, tissue-based, CWR22R; conditions: in vivo
[29] = Drug uptake in mouse tumor xenografted with human 22Rv1 cells at 7.4 MBq, iv measured after 4 hrs by PET imaging analysis relative to control; type: ADME, organism-based, Neoplasm, CWR22R; conditions: in vivo
[30] = Drug distribution in nude mouse blood xenografted with human 22Rv1 cells at 8.1 MBq,iv measured after 4 hrs; type: ADME, tissue-based, CWR22R; conditions: in vivo
[31] = Drug distribution in nude mouse bone xenografted with human 22Rv1 cells at 8.1 MBq,iv measured after 4 hrs; type: ADME, tissue-based, Bone element, CWR22R; conditions: in vivo
[32] = Drug distribution in nude mouse muscle tissue xenografted with human 22Rv1 cells at 8.1 MBq,iv measured after 2 hrs in presence of 2-PMPA; type: ADME, tissue-based, CWR22R; conditions: in vivo

In the case of `COc1cc(C(=O)N[C@@H](CCC(=O)O)C(=O)N[C@@H](CCC(=O)O)C(=O)NCc2ccc(C(=O)N[C@@H](Cc3ccc4ccccc4c3)C(=O)NCCCC[C@H](NC(=O)N[C@@H](CCC(=O)O)C(=O)O)C(=O)O)cc2)ccc1OS(=O)(=O)[18F]`, the Stability [1] is reported as “Stable”, the Drug uptake [2] is reported as 23.42 % ID/g and the Drug uptake [3] is reported as 1.28 % ID/g. For the same compound, the Stability [4] was “Stable”, the Drug uptake [5] was 1.1 % ID/g and the Drug uptake [6] was 0.57 % ID/g. For the same compound, the Drug uptake [7] was 3.18 % ID/g, the Drug uptake [8] was 0.72% and the Drug uptake [9] was 0.97 % ID/g. For the same compound, the Drug uptake [10] was 0.97 % ID/g, the Drug uptake [11] was 0.85 % ID/g and the Drug uptake [12] was 0.53%. The Drug uptake [13] was 1.75 % ID/g, the Drug uptake [14] was 3.79 % ID/g and the Drug uptake [15] was 4.54 % ID/g. The Drug uptake [16] was 2.21 % ID/g, the Drug uptake [17] was 0.31 % ID/g and the Drug uptake [18] was 1.79 % ID/g. For the same compound, the Drug uptake [19] was 2.49 % ID/g, the Drug uptake [20] was 1.19% and the Drug uptake [21] was 2.95 % ID/g. For the same compound, the Drug uptake [22] was 0.52 % ID/g, the Drug uptake [23] was 1.85 % ID/g and the Drug uptake [24] was 1.91 % ID/g. The Drug uptake [25] was 0.79 % ID/g, the Drug uptake [26] was 0.44 % ID/g and the Drug uptake [27] was 0.83 % ID/g. For the same compound, the Drug uptake [28] was 0.1 % ID/g, the Drug uptake [29] was 3.25 % ID/g and the Drug uptake [30] was 0.8 % ID/g. For the same compound, the Drug uptake [31] was 3.76 % ID/g and the Drug uptake [32] was 0.46 % ID/g.
